These results are taken from patent US7803801B2, “Aminopyridine compounds having Syk inhibitory activity” (Japan Tobacco, Inc., priority 2005, dated 2010).

Counter-ions that a name gives are not always drawn.

For the test, the target named is GST-Syk Full Protein (human) (Homo sapiens, UniProt P43405). Nature of the test: Syk kinase inhibition test (HTRF method). It counts as biochemical. The conditions noted are these: Tables 1-x, compounds A; read-out: sykHTRF ave IC50. The method in brief:
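HTRF read-out: after EDTA termination and 1 h with XL665-streptavidin and Eu-anti-phosphotyrosine, the 665/620 nm ratio was measured. The reaction ran 30 min at 20–25 °C with final 6.4 nM human GST-Syk, 250 nM biotinylated peptide, 100 μM ATP, pH 7.0 HEPES buffer, 2% DMSO.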
On to `Cc1ccnc(Nc2cccc(-c3cnc(CN4CCC(C(N)=O)CC4)s3)n2)c1` [Compound A-685, 1-{5-[6-(4-methylpyridin-2-ylamino)pyridin-2-yl]thiazol-2-ylmethyl}piperidine-4-carboxamide], for which the IC50 was less than 100 nM. As for `CNC(=O)C1CCN(Cc2ncc(-c3cccc(Nc4cc(C)ccn4)n3)s2)CC1` [Compound A-686], the IC50 was 100 to 1000 nM. Under `CNC(=O)CN(C)Cc1ncc(-c2cccc(Nc3cc(C)ccn3)n2)s1` [Compound A-687] stands 100 to 1000 nM.

Turning to `Cc1ccnc(Nc2cccc(-c3cnc(CN(C)CC(=O)N(C)C)s3)n2)c1` [Compound A-688], the concentration for half-maximal inhibition (IC50) was 100 to 1000 nM. In the case of `Cc1ccnc(Nc2cccc(-c3cnc(CN(C)CC(=O)NCC(C)(C)C)s3)n2)c1` [Compound A-689], the IC50 is 100 to 1000 nM. For `NC(=O)[C@@H]1CCCN1c1ncc(-c2cccc(Nc3ccccn3)n2)s1` [Compound A-690] the value was 100 to 1000 nM; for `CN(c1ncc(-c2cccc(Nc3ccccn3)n2)s1)C(C)(C)c1ccc(C(=O)O)cc1` [Compound A-691], 100 to 1000 nM; for `CCc1ccnc(Nc2cccc(-c3cnc(N4CCC(CC(=O)O)CC4)s3)n2)c1` [Compound A-692, (1-{5-[6-(4-ethylpyridin-2-ylamino)pyridin-2-yl]thiazol-2-yl}piperidin-4-yl)acetic acid dihydrochloride], less than 100 nM. As to `Cc1ccnc(Nc2cccc(-c3cnc(NC(C)C)s3)n2)c1` [Compound A-693, N-isopropyl-N-{5-[6-(4-methylpyridin-2-ylamino)pyridin-2-yl]thiazol-2-yl}amine], the IC50 was less than 100 nM. For `Cc1ccnc(Nc2cccc(-c3cnc(NCc4ccccc4)s3)n2)c1` [Compound A-694] the value was 100 to 1000 nM. Under `Cc1ccnc(Nc2cccc(-c3cnc(NCCN4CCOCC4)s3)n2)c1` [Compound A-695, N-{5-[6-(4-methylpyridin-2-ylamino)pyridin-2-yl]thiazol-2-yl}-N-(2-morpholin-4-ylethyl)amine] stands less than 100 nM; under `Cc1ccnc(Nc2cccc(-c3cnc(N(C)C4CCN(C(=O)NC5CCCCC5)CC4)s3)n2)c1` [Compound A-696], 100 to 1000 nM; under `Cc1ccnc(Nc2cccc(-c3cnc(CN(C)CC(N)=O)s3)n2)c1` [Compound A-697, 2-(N-methyl-N-{5-[6-(4-methylpyridin-2-ylamino)pyridin-2-yl]thiazol-2-ylmethyl}amino)acetamide], less than 100 nM.

For the compound `CCC(C(=O)O)C1CCN(c2ncc(-c3cccc(Nc4cc(C)ccn4)n3)s2)CC1` (stereo not shown) [Compound A-698, 2-(1-{5-[6-(4-methylpyridin-2-ylamino)pyridin-2-yl]thiazol-2-yl}piperidin-4-yl)butyric acid], the IC50 was less than 100 nM. For `CN(C[C@H]1CC[C@H](C(=O)O)CC1)c1ncc(-c2cccc(Nc3ccccn3)n2)s1` [Compound A-699, trans-4-[(N-methyl-N-{5-[6-(pyridin-2-ylamino)pyridin-2-yl]thiazol-2-yl}amino)methyl]cyclohexanecarboxylic acid dihydrochloride] the value was less than 100 nM; for `O=C(O)CC1CCN(c2ncc(-c3cccc(Nc4cc(OCC(F)(F)F)ccn4)n3)s2)CC1` [Compound A-700, [1-(5-{6-[4-(2,2,2-trifluoroethoxy)pyridin-2-ylamino]pyridin-2-yl}thiazol-2-yl)piperidin-4-yl]acetic acid dihydrochloride], less than 100 nM.

Consider `Cc1ccnc(Nc2cccc(-c3cnc(NCCc4ccccc4)s3)n2)c1` [Compound A-701], for which the IC50 lay within 100 to 1000 nM. Under `Cc1ccnc(Nc2cccc(-c3cnc(N(C)CC(C)(C)O)s3)n2)c1` [Compound A-702, 2-methyl-1-(N-methyl-N-{5-[6-(4-methylpyridin-2-ylamino)pyridin-2-yl]thiazol-2-yl}amino)propan-2-ol] stands less than 100 nM. Under `Cc1ccnc(Nc2cccc(-c3cnc(N(C)C4CCN(C(=O)N5CCC(O)CC5)CC4)s3)n2)c1` [Compound A-703] stands 100 to 1000 nM. Under `Cc1ccnc(Nc2cccc(-c3cnc(N4CCCC(CCC(=O)O)C4)s3)n2)c1` (stereo not shown) [Compound A-704, 3-(1-{5-[6-(4-methylpyridin-2-ylamino)pyridin-2-yl]thiazol-2-yl}piperidin-3-yl)propionic acid] stands less than 100 nM; under `Cc1ccnc(Nc2cccc(-c3cnc(N(C)C4CCN(C(=O)NCCO)CC4)s3)n2)c1` [Compound A-705, N-(2-hydroxyethyl)-4-(N′-methyl-N′-{5-[6-(4-methylpyridin-2-ylamino)pyridin-2-yl]thiazol-2-yl}amino)piperidine-1-carboxamide], less than 100 nM. `CN(CCO)c1ncc(-c2cccc(Nc3ccccn3)n2)s1` [Compound A-706]: the IC50 fell in the range of 100 to 1000 nM. For `CC(C)(C(=O)O)C1CCN(c2ncc(-c3cccc(Nc4cnccn4)n3)s2)CC1` [Compound A-707, 2-methyl-2-(1-{5-[6-(pyrazin-2-ylamino)pyridin-2-yl]thiazol-2-yl}piperidin-4-yl)propionic acid dihydrochloride] the value was less than 100 nM; for `COc1ccc(C)cc1Nc1cccc(-c2cnc(N3CCC(CC(=O)O)CC3)s2)n1` [Compound A-708], 100 to 1000 nM; for `CC(=O)N(Cc1ccc(C(=O)O)cc1)Cc1ncc(-c2cccc(Nc3cc(C)ccn3)n2)s1` [Compound A-709, 4-[(N-acetyl-N-{5-[6-(4-methylpyridin-2-ylamino)pyridin-2-yl]thiazol-2-ylmethyl}amino)methyl]benzoic acid], less than 100 nM. Under `CC(C)(C)c1ccnc(Nc2cccc(-c3cnc(N4CCC(CC(=O)O)CC4)s3)n2)c1` [Compound A-710, (1-{5-[6-(4-tert-butylpyridin-2-ylamino)pyridin-2-yl]thiazol-2-yl}piperidin-4-yl)acetic acid dihydrochloride] stands less than 100 nM; under `CC(C)c1ccnc(Nc2cccc(-c3cnc(N4CCC(CC(=O)O)CC4)s3)n2)c1` [Compound A-711, (1-{5-[6-(4-isopropylpyridin-2-ylamino)pyridin-2-yl]thiazol-2-yl}piperidin-4-yl)acetic acid dihydrochloride], less than 100 nM. On to `Cc1ccnc(Nc2cccc(-c3cnc(N4CCC5(CC4)CC5C(=O)O)s3)n2)c1` (stereo not shown) [Compound A-712, 6-{5-[6-(4-methylpyridin-2-ylamino)pyridin-2-yl]thiazol-2-yl}-6-azaspiro[2.5]octane-1-carboxylic acid], for which the IC50 was less than 100 nM.

For `CC(C)(C(=O)O)C1CCN(c2ncc(-c3cccc(Nc4cc(CCO)ccn4)n3)s2)CC1` [Compound A-713, 2-[1-(5-{6-[4-(2-hydroxyethyl)pyridin-2-ylamino]pyridin-2-yl}thiazol-2-yl)piperidin-4-yl]-2-methylpropionic acid], the IC50 was less than 100 nM. `CC(C)(C(=O)O)C1CCN(c2ncc(-c3cccc(Nc4ccccn4)n3)s2)CC1` [Compound A-714, 2-methyl-2-(1-{5-[6-(pyridin-2-ylamino)pyridin-2-yl]thiazol-2-yl}piperidin-4-yl)propionic acid]: the IC50 is less than 100 nM. Under `O=C(O)C(F)C1CCN(c2ncc(-c3cccc(Nc4cnccn4)n3)s2)CC1` (stereo not shown) [Compound A-715, fluoro-(1-{5-[6-(pyrazin-2-ylamino)pyridin-2-yl]thiazol-2-yl}piperidin-4-yl)acetic acid dihydrochloride] stands less than 100 nM.

In general, IC50 refers to the midpoint of a concentration-inhibition curve.
